Patent US20240252463A1, “METHODS OF TREATING FIBROTIC PATHOLOGIES” (Mayo Foundation for Medical Education and Research, priority 2018, published 2024)

Experiments:
YAP/TAZ = YAP/TAZ localization in pulmonary epithelial (NHAEpC) and endothelial (NHMVEC) cells; type: cell-based, human; settings: FIG. 2b
Protocol: Scale bar represents 100 μm. […] Scale bar represents 100 μm.
ImmunofluorescenceMicroscopy: Cells were plated into 96 well plates (Corning 3603) in their specific growth media and allowed to attach (8 hours). Media was then exchanged for the indicated conditions for each experiment. Cells were fixed in 3.7% formalin (Sigma-Aldrich), permeabilized in 0.25% Triton X-100 (Sigma-Aldrich) and then blocked with 1% BSA for 1 h. Cells or tissue sections were incubated overnight with mouse monoclonal antibody against αSMA (Sigma-Aldrich F3777), and/or a rabbit monoclonal antibody against YAP/TAZ (Cell Signaling D24E4) diluted 1:200 in PBS with 1% BSA. Cells were then washed and exposed to flourescence-conjugated secondary antibodies (Invitrogen) diluted 1:1000 and DAPI (Thermo Fisher Scientific). Images were taken with a Cytation5 (BioTek) microscope. For scoring αSMA positive cells (FIG. 3b), an observer blinded to the treatment conditions counted αSMA-positive cells using a visual threshold for bright fibrous staining; a minimum of 200 cells was counted for each condition. YAP/TAZ localization was quantified (FIG. 2, 6, 8) using Gen5 (Biotek) software. […] Quantification of double positive (YAP/TAZ and αSMA) cells from lung tissue sections (FIG. 4d) was performed similarly; however separate thresholds were established for both YAP/TAZ and αSMA. A minimum of 4000 cells was quantified for each mouse.

[1] = test system: IPF patient derived fibroblasts; test: Traction Force Microscopy of IPF patient derived fibroblasts; type: cell-based, human; settings: IPF fibroblasts on 6.4 kPa matrices
Protocol: Traction Force Microscopy: Traction analysis was conducted as previously described. Briefly, polyacrylamide substrates with shear moduli of 6.4 kPa were prepared, and fluorescent sulfate-modified latex microspheres (0.2 μm, 505/515 ex/em) (FluoSpheres, Life Technologies) were conjugated to the gel surfaces after treatment with 1 mg ml^−1 of dopamine hydrochloride (Sigma-Aldrich) in 50 mM HEPES solution (pH 8.5). IPF patient derived fibroblasts were plated on the gels overnight and treated as indicated before traction force measurements. Images of gel surface-conjugated fluorescent beads were acquired for each cell before and after trypsinization using a Nikon ECLIPSE Ti microscope at ×10 magnification. Traction forces were estimated by measuring bead displacement fields and computing corresponding traction fields using TractionsForAll (freely distributed program that calculates 2-D tractions exerted by an adherent cell on its substrate).

[2] = test system: hepatic stellate cells (HSCs); test: Western blot of αSMA and Fibronectin in TGFβ-stimulated hepatic stellate cells; type: cell-based, human; settings: TGFβ 48 hours +/- DHX 10 μM
Protocol: FIGS. 10A-10D DHX reverses hepatic stellate cell activation and in vivo hepatic fibrosis. 10a. DRD1 is preferentially expressed in cultured human hepatic stellate cells (HSCs): ACTA2, PDGFRA positive, relative to cultured human hepatocytes (Heps): ALB positive. N=1. 10b. DHX inhibits TGFβ-mediated hepatic stellate cell activation in vitro. HSCs were stimulated with TGFβ for 48 hours+/−DHX (10 μM) prior to total protein isolation and western blot analysis of αSMA and Fibronectin. N=3 (***p<0.001, **p<0.01, *p<0.05 vs. Control+TGFβ). 10c. DHX reverses Bile duct ligation (BDL) mediated fibrosis in vivo measured by trichrome staining, and 10d. hydroxyproline. Sham Control N=5, BDL Control N=7, and BDL DHX N=8 (**p<0.01 vs. BDL Control).
Western Blotting: Cells were plated in EMEM containing 10% FBS overnight. Media was exchanged with EMEM containing 0.1% FBS for 24 hours. Prior to protein isolation cells were treated with the indicated concentration of compounds for the indicated time. Total protein was isolated using RIPA buffer (pH 8.0) containing Pierce Phosphatase Inhibitor (Thermo) and Halt Protease Inhibitor Cocktail (Thermo). Lysate total protein concentration was determined using Pierce BCA Protein Assay Kit (Thermo) and samples were run on a 10% polyacrylamide gel. […] Plates were imaged via a Li-Cor OdysseyXL system with quantification performed via densitometry.

human dermal fibroblasts = test: Profibrotic gene expression in human dermal fibroblasts +/- TGFβ; type: cell-based; settings: 24 hours +/− 2 ng/mL TGFβ
Protocol: Human dermal fibroblasts treated for 24 hours+/−2 ng/mL TGFβ and D1 agonists: DHX and A68930 prior to RNA isolation. N=2. For all other in vitro experiments, cells were treated as indicated prior to RNA isolation using RNeasy Plus Mini Kit (Qiagen) according to manufacturer's instructions. Isolated RNA (250 ng) was then used to synthesize cDNA using SuperScript VILO (Invitrogen). Quantitative PCR was performed using FastStart Essential DNA Green Master (Roche) and analyzed using a LightCycler 96 (Roche). Data are expressed as a fold change by ΔΔCt relative to GAPDH. For in vivo experiments, tissue was immediately frozen, and stored at −80° C. RNA isolation, cDNA synthesis, and qPCR analysis were performed as above.

Oc1cc2c(cc1O)[C@H]1c3ccccc3CN[C@@H]1CC2 (racemic) [Dihydrexidine, dihydrexidine]
YAP/TAZ localization in pulmonary epithelial and endothelial cells (YAP/TAZ): had no effect on YAP/TAZ localization | contractile forces (traction force microscopy) [1]: significantly and dose-dependently reduced the contractile forces | TGFβ-mediated HSC expression of SMA and FN protein [2]: significant reversal of both | profibrotic gene expression in human dermal fibroblasts (human dermal fibroblasts): blocks profibrotic gene expression
